The source made the active and inactive calls. No cut-off for these calls is given here.
Experiments:
P388 = assay: Cytotoxicity against mouse P388 cells; assay type: functional, cell-based
Bacillus subtilis = assay: Antibacterial activity against Bacillus subtilis; assay type: functional, organism-based
Escherichia coli = assay: Antibacterial activity against Escherichia coli; assay type: functional, organism-based
Pseudomonas aeruginosa = assay: Antibacterial activity against Pseudomonas aeruginosa; assay type: functional, organism-based
Candida albicans = assay: Antifungal activity against Candida albicans; assay type: functional, organism-based

Row | SMILES | IC50 (P388) [µM] | Activity (Bacillus subtilis) | Activity (Escherichia coli) | Activity (Pseudomonas aeruginosa) | Activity (Candida albicans) | Activity (P388)
1 | NCCc1ccc(O)c(Br)c1 | 46 | inactive | inactive | inactive | inactive | 
2 | Cn1c(=N)c2nc[nH]c2n(C)c1=O |  | inactive | inactive | inactive | inactive | inactive
